Results published in paper PMC6917776, “Discovery of a chemical probe for PRDM9” (Nature Communications, 2019).
Several values for one entry are separate records, joined by “and”; a condition that tells them apart may be missing. Identical values can stand only once.

Tested on: H3K4me3 at known PRDM9 binding loci and control TSS loci
Assay: ChIP-qPCR of H3K4me3 in PRDM9-transfected HEK293T cells
Type: cell-based, human
Conditions: Antibody H3K4me3; for 2^-dCq / dCq (IP-Input) / Cq: Figure 7 Replicate 2; for 2^-dCq (H3K4me3 IP relative to H3 IP): ChIP-qPCR Replicate 1; for Cq: ChIP-qPCR single well; for 2^-dCq (H3K4me3 ChIP relative to H3 ChIP): Replicate 1
Method: ChIP-qPCR assays were then conducted on known PRDM9 binding loci[26]. Ectopic expression of PRDM9^WT increased trimethylation of H3K4 (H3K4me3) at previously described PRDM9-specific intragenic and intergenic regions[26] (Fig. 7; Supplementary Fig. 12). […] The observed increases in H3K4me3 levels at intragenic and intergenic regions are therefore due directly to PRDM9 PR domain-dependent methylation activity, rather than through recruitment of other H3K4 methyltransferases or other indirect mechanisms.
ChIP qPCR analyses of H3K4me3 methylation levels of known PRDM9-bound loci and control loci. […] Concentrations used (µM) are indicated below each plot. (a–d) represent reported loci of PRDM9 methylation; (e, f) are transcriptional start sites (TSSs) which are not known loci of PRDM9 methylation. Data are normalized to total H3 and are presented as the mean ± upper and lower limits from two replicates. Representative plots of two independent experiments are shown in this figure. The coordinates and the genomic features associated with the assayed loci are indicated above each plot. Left Tailed Student's t-tests were performed by comparing DMSO (0 µM) treated cells to compound treated cells that have been transfected with the same plasmids. *p-value < 0.05 and **p-value < 0.01. Note that here we show a representative of two independent experiments (mean ± s.d of technical replicates) for our ChIP-qPCR experiments. Data obtained using this technique are inherently noisy due to stochastic differences in gene activity/histone positioning. Data are thus typically presented as representative rather than averaged. Source data are provided as a Source Data file.
HEK293T cells were transfected with 37.5 μg empty pcDNA3.1(+) vector (Invitrogen), or the same vector expressing either wild-type PRDM9 (PRDM9^WT) or a catalytically dead PRDM9 mutant (PRDM9^Mut) and 75 μL of Lipofectamine 2000 (Invitrogen) in 6 mL of Opti-MEM (GIBCO) for 48 h. […] ChIP assays were then performed as previously described. Briefly, cells were fixed in 1% formaldehyde and the fixation reaction was quenched in a final concentration of 0.1 M glycine. Cell pellets were first lysed in LB1 (50 mM HEPES-KOH pH 7.5, 140 mM NaCl, 1 mM EDTA, 10% Glycerol, 0.5% Igepal, 0.25% TritonX), washed once in LB2 Buffer (10 mM Tris-HCl pH 8, 200 mM NaCl, 1 mM EDTA, 0.5 mM EGTA) and finally sonicated in LB3 buffer (10 mM Tris-HCl pH 8, 100 mM NaCl, 1 mM EDTA, 0.5 mM EGTA, 0.1% Sodium deoxycholate, 0.5% N-laurosylsarcosine) using a bioruptor (Diagenode). Thereafter, 50 μg of chromatin was subjected to ChIP using the following antibodies purchased from Abcam: α-H3K4me3 (1:200, ab8580, lot:GR3207339-1) and α-H3 (1:250, ab1791, lot:GR300978-4). After extensive washing in RIPA wash buffer (50 mM HEPES-KOH pH 7.6, 100 mM LiCl, 1 mM EDTA, 1% Igepal, 0.7% Sodium Deoxycholate), DNA was eluted from beads. The eluted DNA was treated with RNase A and Proteinase K and purified using the QIAGEN PCR purification kit. qPCR was then carried out targeting the indicated loci (Supplementary Table 3). Upper and lower limits were defined by |2^−(dCq±s) − 2^−(∆Cq)|, where s = √((Standard deviation of Input Cq)^2 + (Standard deviation of Target Cq)^2). […]
formation. ChIP qPCR analyses of H3K4me3 methylation levels at known PRDM9-bound and control loci. Cells transfected with empty vector (negative control) or vectors overexpressing either wild-type PRDM9 (PRDM9 WT) or catalytically dead PRDM9 (PRDM9 MUT) were […]
Panels a-d represent reported loci of […]
(1 picture or pasted object on this page, not shown here)
PRDM9 methylation; e-f are TSSs which are not known sites of PRDM9 methylation. Data are normalized to total H3 and are presented as the mean ± upper and lower limits from two […]

[1] = Plasmid PRDM9WT, Drug Conc. 2.5

With COc1cc(OC)cc(-c2noc(N3CCN(C)C4(CCN(c5ccnc(C)c5)CC4)C3)n2)c1 [MRK-740] the “2^-dCq” value [1] was 68.6717, the “dCq (IP-Input)” value [1] was -6.102 and the “2^-dCq” value (Plasmid PRDM9WT, Drug Conc. 5) was 143.684. The “dCq (IP-Input)” value (Plasmid PRDM9WT, Drug Conc. 5) was -7.167, the “2^-dCq” value (Plasmid PRDM9WT, Drug Conc. 10) was 36.5414 and the “dCq (IP-Input)” value (Plasmid PRDM9WT, Drug Conc. 10) was -5.191. For the same compound, the “2^-dCq (H3K4me3 IP relative to H3 IP)” value (Figure 7 E chr12:6643945-6644023 TSS (GAPDH), Plasmid Empty Vector, Drug Conc. 2.5) was 42.6349, the “2^-dCq (H3K4me3 IP relative to H3 IP)” value (Figure 7 E chr12:6643945-6644023 TSS (GAPDH), Plasmid Empty Vector, Drug Conc. 5) was 95.4581 and the “2^-dCq (H3K4me3 IP relative to H3 IP)” value (Figure 7 E chr12:6643945-6644023 TSS (GAPDH), Plasmid Empty Vector, Drug Conc. 10) was 117.266. For the same compound, the “2^-dCq (H3K4me3 IP relative to H3 IP)” value (Figure 7 E chr12:6643945-6644023 TSS (GAPDH), Plasmid PRDM9WT, Drug Conc. 2.5) was 25.3027, the “2^-dCq (H3K4me3 IP relative to H3 IP)” value (Figure 7 E chr12:6643945-6644023 TSS (GAPDH), Plasmid PRDM9WT, Drug Conc. 5) was 32.9385 and the “2^-dCq (H3K4me3 IP relative to H3 IP)” value (Figure 7 E chr12:6643945-6644023 TSS (GAPDH), Plasmid PRDM9WT, Drug Conc. 10) was 45.6823. For the same compound, the “2^-dCq (H3K4me3 IP relative to H3 IP)” value (Figure 7 F chr19:8510167-8510261 TSS (HNRNPM), Plasmid Empty Vector, Drug Conc. 2.5) was 71.0331, the “2^-dCq (H3K4me3 IP relative to H3 IP)” value (Figure 7 F chr19:8510167-8510261 TSS (HNRNPM), Plasmid Empty Vector, Drug Conc. 5) was 77.1794 and the “2^-dCq (H3K4me3 IP relative to H3 IP)” value (Figure 7 F chr19:8510167-8510261 TSS (HNRNPM), Plasmid Empty Vector, Drug Conc. 10) was 127.571. For the same compound, the “2^-dCq (H3K4me3 IP relative to H3 IP)” value (Figure 7 F chr19:8510167-8510261 TSS (HNRNPM), Plasmid PRDM9WT, Drug Conc. 2.5) was 23.4419, the “2^-dCq (H3K4me3 IP relative to H3 IP)” value (Figure 7 F chr19:8510167-8510261 TSS (HNRNPM), Plasmid PRDM9WT, Drug Conc. 5) was 34.0456 and the “2^-dCq (H3K4me3 IP relative to H3 IP)” value (Figure 7 F chr19:8510167-8510261 TSS (HNRNPM), Plasmid PRDM9WT, Drug Conc. 10) was 45.2017. The Cq [1] was 20.9173, the Cq (Plasmid PRDM9WT, Drug Conc. 5) was 20.8427 and 20.8648 and the Cq (Plasmid PRDM9WT, Drug Conc. 10) was 21.3604 and 21.0972. For the same compound, the “2^-dCq (H3K4me3 ChIP relative to H3 ChIP)” value (Figure 7 A, chr2:128811847-128811944 (Intergenic), Plasmid Empty Vector, Drug Conc. 2.5) was 0.4418, the “2^-dCq (H3K4me3 ChIP relative to H3 ChIP)” value (Figure 7 A, chr2:128811847-128811944 (Intergenic), Plasmid Empty Vector, Drug Conc. 5) was 0.3019 and the “2^-dCq (H3K4me3 ChIP relative to H3 ChIP)” value (Figure 7 A, chr2:128811847-128811944 (Intergenic), Plasmid Empty Vector, Drug Conc. 10) was 0.3892. The “2^-dCq (H3K4me3 ChIP relative to H3 ChIP)” value (Figure 7 A, chr2:128811847-128811944 (Intergenic), Plasmid PRDM9WT, Drug Conc. 2.5) was 1.223, the “2^-dCq (H3K4me3 ChIP relative to H3 ChIP)” value (Figure 7 A, chr2:128811847-128811944 (Intergenic), Plasmid PRDM9WT, Drug Conc. 5) was 0.9838 and the “2^-dCq (H3K4me3 ChIP relative to H3 ChIP)” value (Figure 7 A, chr2:128811847-128811944 (Intergenic), Plasmid PRDM9WT, Drug Conc. 10) was 1.179. The “2^-dCq (H3K4me3 ChIP relative to H3 ChIP)” value (Figure 7 B, chr8:49932778-49932856 (Intergenic), Plasmid Empty Vector, Drug Conc. 2.5) was 0.3289, the “2^-dCq (H3K4me3 ChIP relative to H3 ChIP)” value (Figure 7 B, chr8:49932778-49932856 (Intergenic), Plasmid Empty Vector, Drug Conc. 5) was 0.2554 and the “2^-dCq (H3K4me3 ChIP relative to H3 ChIP)” value (Figure 7 B, chr8:49932778-49932856 (Intergenic), Plasmid Empty Vector, Drug Conc. 10) was 0.5965. For the same compound, the “2^-dCq (H3K4me3 ChIP relative to H3 ChIP)” value (Figure 7 B, chr8:49932778-49932856 (Intergenic), Plasmid PRDM9WT, Drug Conc. 2.5) was 4.659, the “2^-dCq (H3K4me3 ChIP relative to H3 ChIP)” value (Figure 7 B, chr8:49932778-49932856 (Intergenic), Plasmid PRDM9WT, Drug Conc. 5) was 2.677 and the “2^-dCq (H3K4me3 ChIP relative to H3 ChIP)” value (Figure 7 B, chr8:49932778-49932856 (Intergenic), Plasmid PRDM9WT, Drug Conc. 10) was 2.675.
